Source: patent US7906556B2, “Methods of treating amyloidosis using cyclopropyl derivative aspartyl protease inhibitors” (Elan Pharmaceuticals, Inc., priority 2005, dated 2011)
“And” between values parts separate entries of the source, which are not always exact repeats. Identical values can stand only once.

Test system: beta-secretase versus catD
Assay: Selectivity of compounds for inhibiting BACE over catD (ratio of IC50 values)
Type: biochemical
Details: each value is an average of four experimental runs; multiple values = more than one experiment
Protocol: Investigation of potential beta-secretase inhibitors produced compounds with increased selectivity for beta-secretase over other aspartyl proteases such as cathepsin D (catD), cathepsin E (catE), Human Immunodeficiency Viral (HIV) protease, and renin. Selectivity was calculated as a ratio of inhibition (IC50) values in which the inhibition of beta-secretase was compared to the inhibition of other aspartyl proteases.
The compounds of formula (I) can be selective for beta-secretase versus catD.
In the following examples, each value is an average of four experimental runs and multiple values for one compound indicate that more than one experiment was conducted.

Row | SMILES | Selectivity IC50 catD/IC50 BACE
1 | CC(=O)NC(Cc1cc(F)cc(F)c1)C(O)CNC1(CCC(C)C)C2CCCC21 (stereo not drawn) [Example 3.1, N-(4-(6-isopentylbicyclo[3.1.0]hexan-6-ylamino)-1-(3,5-difluorophenyl)-3-hydroxybutan-2-yl)acetamide] | > 3.7 and > 3.2
2 | CC(=O)NC(Cc1cc(F)cc(F)c1)C(O)CNC1(CCCC(C)C)CC1 (stereo not drawn) [Example 3.2, N-(1-(3,5-difluorophenyl)-3-hydroxy-4-(1-(4-methylpentyl)cyclopropylamino)butan-2-yl)acetamide] | 1.1

Test system: not listed separately
Assay: In vitro permeability across a monolayer of MDCK cells in a transwell device
Type: in vitro ADME, Canine
Details: dog, MDCK, test compound 5 μM, 2 h at 37° C., apical to basolateral, read-out: Permeability Forward A > B
Protocol: (§1) Compounds were evaluated for permeability across a monolayer of Madin-Darby Canine Kidney (MDCK) cells in a transwell device following culturing for 4 days. Cells were grown in Dulbecco's Modified Eagle Media with Glutamax (Invitrogen Cat #10569-010) with 10% Heat Inactivated Fetal Bovine Serum (media kitchen) and Penicillin/streptomycin 40 units/mL (media kitchen) at 37° C. and 5% CO2, and were plated into 12 mm diameter transwell plates (12 wells/plate, Costar Cat#3401). A 0.5 mL of cell suspension (400,000 cells/mL) was placed on membrane and a 1.5 mL media in the bottom wells on day 1. On day 2 and day 3, cells were fed with new media. On day 4, the lower chambers were filled with modified Hank's Balanced Salt Solution (mHBSS, media kitchen) with or without 5 μM Cyclosporin A (CspA, Sigma Cat#C-3662). Media was removed from upper chambers and filled with mHBSS with or without CspA, and incubated 30 min at 37° C. with light shaking. Donor chambers were emptied, and filled with test compound at 5 μM in mHBSS. Lucifer Yellow (100 μM, LY, Sigma Cat#L-0144) was added to all of the upper chambers to test for monolayer integrity (tight junctions). Plates were incubated for 2 h at 37° C. with shaking. After 2 h, both the donor and receiver wells were sampled. The bottom chambers were read in a fluorometer to assess LY leakage, and then the media from all wells were assayed by LC/MS/MS to determine compound levels.

Row | SMILES | Papp A→B at 2 h, 5 μM [×10⁻⁶ cm/s]
3 | CC(=O)NC(Cc1cc(F)cc(F)c1)C(O)CNC1(CCOCC(C)(C)C)CC1C (single isomer, unassigned) [Example 3.7, N-(4-(2-methyl-1-(2-(neopentyloxy)ethyl)cyclopropylamino)-1-(3,5-difluorophenyl)-3-hydroxybutan-2-yl)acetamide] | 8.18
4 | CC(=O)NC(Cc1cc(F)cc(F)c1)C(O)CNC1(CCCC(C)C)CC1 (stereo not drawn) [Example 3.2, N-(1-(3,5-difluorophenyl)-3-hydroxy-4-(1-(4-methylpentyl)cyclopropylamino)butan-2-yl)acetamide] | 4.33
5 | CC(=O)NC(Cc1cc(F)cc(F)c1)C(O)CNC1(CSCC(C)(C)C)CC1 (stereo not drawn) [Example 3.3, N-(4-(1-((neopentylthio)methyl)cyclopropylamino)-1-(3,5-difluorophenyl)-3-hydroxybutan-2-yl)acetamide] | 10.1
6 | CC(=O)NC(Cc1cc(F)cc(F)c1)C(O)CNC1(C(=O)NCCC(C)(C)C)CC1 (stereo not drawn) [Example 3.4, 1-(3-acetamido-4-(3,5-difluorophenyl)-2-hydroxybutylamino)-N-(3,3-dimethylbutyl)cyclopropanecarboxamide] | 3.33
7 | CC(=O)NC(Cc1cc(F)cc(F)c1)C(O)CNC1(Cc2cn(CC(C)(C)C)nn2)CC1 (stereo not drawn) [Example 3.6, N-(1-(3,5-difluorophenyl)-3-hydroxy-4-(1-((1-neopentyl-1H-1,2,3-triazol-4-yl)methyl)cyclopropylamino)butan-2-yl)acetamide] | 4.31
8 | CC(=O)NC(Cc1cc(F)cc(F)c1)C(O)CNC1(COCCC(C)(C)C)C2CCCC21 (stereo not drawn) [Example 3.9, N-(1-(3,5-difluorophenyl)-4-(6-((3,3-dimethylbutoxy)methyl)bicyclo[3.1.0]hexan-6-ylamino)-3-hydroxybutan-2-yl)acetamide] | 4.73
9 | CC(=O)NC(Cc1cc(F)cc(F)c1)C(O)CNC1(Cc2cc(C(C)(C)C)on2)CC1 (stereo not drawn) [Example 3.10, N-(4-(1-((5-tert-butylisoxazol-3-yl)methyl)cyclopropylamino)-1-(3,5-difluorophenyl)-3-hydroxybutan-2-yl)acetamide] | 9.32
10 | CC(=O)NC(Cc1cc(F)cc(F)c1)C(O)CNC1(CCCCC(C)(C)C)CC1 (stereo not drawn) [Example 3.11, N-(1-(3,5-difluorophenyl)-4-(1-(5,5-dimethylhexyl)cyclopropylamino)-3-hydroxybutan-2-yl)acetamide] | 3.31
11 | CC(=O)NC(Cc1cc(F)cc(F)c1)C(O)CNC1(C/C=C/CC(C)(C)C)CC1 (stereo not drawn) [Example 3.12, N-(1-(3,5-difluorophenyl)-4-(1-(5,5-dimethylhex-2-enyl)cyclopropylamino)-3-hydroxybutan-2-yl)acetamide] | 4.28
12 | CC(=O)NC(Cc1cc(F)cc(F)c1)C(O)CNC1(CCCn2cccn2)CC1 (stereo not drawn) [Example 3.13, N-(4-(1-(3-(1H-pyrazol-1-yl)propyl)cyclopropylamino)-1-(3,5-difluorophenyl)-3-hydroxybutan-2-yl)acetamide] | 4.39
13 | CC(=O)NC(Cc1cc(F)cc(F)c1)C(O)CNC1(CCCCn2cccn2)CC1 (stereo not drawn) [Example 3.14, N-(4-(1-(4-(1H-pyrazol-1-yl)butyl)cyclopropylamino)-1-(3,5-difluorophenyl)-3-hydroxybutan-2-yl)acetamide] | 3.47
14 | CC(=O)NC(Cc1cc(F)cc(F)c1)C(O)CNC1(CCOCC(C)(C)C)CC1 (stereo not drawn) [Example 3.15, N-(4-(1-(2-(neopentyloxy)ethyl)cyclopropylamino)-1-(3,5-difluorophenyl)-3-hydroxybutan-2-yl)acetamide] | 9.74
15 | CC(=O)NC(Cc1cc(F)cc(F)c1)C(O)CNC1(C(=O)NCC(C)(C)C)CC1 (stereo not drawn) [Example 3.16, 1-(3-acetamido-4-(3,5-difluorophenyl)-2-hydroxybutylamino)-N-neopentylcyclopropanecarboxamide] | 6.15
16 | CC(=O)NC(Cc1cc(F)cc(F)c1)C(O)CNC1(C(=O)N(C)c2ccccc2)CC1 (stereo not drawn) [Example 3.18, 1-(3-acetamido-4-(3,5-difluorophenyl)-2-hydroxybutylamino)-N-methyl-N-phenylcyclopropanecarboxamide] | 4.56
17 | CC(=O)NC(Cc1cc(F)cc(F)c1)C(O)CNC1(Cc2c(F)cccc2F)CC1 (stereo not drawn) [Example 3.19, N-(4-(1-(2,6-difluorobenzyl)cyclopropylamino)-1-(3,5-difluorophenyl)-3-hydroxybutan-2-yl)acetamide] | 19.1
18 | CC(=O)NC(Cc1cc(F)cc(F)c1)C(O)CNC1(Cc2ccccc2F)CC1 (stereo not drawn) [Example 3.20, N-(1-(3,5-difluorophenyl)-4-(1-(2-fluorobenzyl)cyclopropylamino)-3-hydroxybutan-2-yl)acetamide] | 21.2

Test system: Madin-Darby Canine Kidney (MDCK) cells
Assay: as above
Type: in vitro ADME
Details: test compound 5 μM, 2 h at 37° C., apical to basolateral
Protocol: as §1

Row | SMILES | Permeability Forward A > B [×10⁻⁶ cm/s]
19 | CC(=O)NC(Cc1cc(F)cc(F)c1)C(O)CNC1(CCOCC(C)(C)C)CC1C (single isomer, unassigned) [Example 3.8, N-(4-(2-methyl-1-(2-(neopentyloxy)ethyl)cyclopropylamino)-1-(3,5-difluorophenyl)-3-hydroxybutan-2-yl)acetamide] | 11.84
20 | CC(=O)NC(Cc1cc(F)cc(F)c1)C(O)CNC1(C(=O)NCCC(C)(C)C)CC1 (stereo not drawn) [Example 3.4, 1-(3-acetamido-4-(3,5-difluorophenyl)-2-hydroxybutylamino)-N-(3,3-dimethylbutyl)cyclopropanecarboxamide] | 4.56

Target: T1, P-gp (Mus musculus, UniProt P21447)
T1 construct: FVB wild-type littermates, which expresses P-gp at their blood-brain barrier (BBB); from tissue; host or cells: blood-brain barrier / brain of FVB wild-type mice, compared with mdr1 a/b (-/-) mice, in vivo
Assay: In vivo P-gp liability assessment in mdr1 a/b (-/-) and wild type FVB mouse
Details: mdr1 a/b (-/-) vs FVB wild-type mice, 2.5 mg/Kg IV, 5 min post administration, ratio of Cb/Cp
Protocol: Use of mdr1 (−/−) mouse and its FVB wild-type littermates, which expresses P-gp at their blood-brain barrier (BBB), can distinguish between a test compound of high P-gp liability from one with a more desirable low P-gp liability.
Test compounds are administered to both the mdr1 a/b (−/−) and the FVB wild-type mice (N=4/strain) intravenously at 2.5 mg/Kg through the tail vein. Plasma and brains are harvested at 5 min post administration. Test compound is extracted from tissue in parallel with calibration curves prepared from age-matched control tissues, then quantitated by LC/MS/MS. The ratio of brain concentration (Cb) to plasma concentration (Cp) is used as a measure of brain penetration according to the following formula: Brain Penetration (P)=Cb/Cp Therefore, a measure of brain penetration in the mdr1 (−/−) mouse relative to that of the wild-type animal represents an assessment of in vivo P-gp efflux, which is analogous to that determine in vitro with MDR1-MDCK cells. Calculations are made according to the following formula: Pmdr1/PFVB=In vivo Efflux

T1 sequence (P21447 whole entry): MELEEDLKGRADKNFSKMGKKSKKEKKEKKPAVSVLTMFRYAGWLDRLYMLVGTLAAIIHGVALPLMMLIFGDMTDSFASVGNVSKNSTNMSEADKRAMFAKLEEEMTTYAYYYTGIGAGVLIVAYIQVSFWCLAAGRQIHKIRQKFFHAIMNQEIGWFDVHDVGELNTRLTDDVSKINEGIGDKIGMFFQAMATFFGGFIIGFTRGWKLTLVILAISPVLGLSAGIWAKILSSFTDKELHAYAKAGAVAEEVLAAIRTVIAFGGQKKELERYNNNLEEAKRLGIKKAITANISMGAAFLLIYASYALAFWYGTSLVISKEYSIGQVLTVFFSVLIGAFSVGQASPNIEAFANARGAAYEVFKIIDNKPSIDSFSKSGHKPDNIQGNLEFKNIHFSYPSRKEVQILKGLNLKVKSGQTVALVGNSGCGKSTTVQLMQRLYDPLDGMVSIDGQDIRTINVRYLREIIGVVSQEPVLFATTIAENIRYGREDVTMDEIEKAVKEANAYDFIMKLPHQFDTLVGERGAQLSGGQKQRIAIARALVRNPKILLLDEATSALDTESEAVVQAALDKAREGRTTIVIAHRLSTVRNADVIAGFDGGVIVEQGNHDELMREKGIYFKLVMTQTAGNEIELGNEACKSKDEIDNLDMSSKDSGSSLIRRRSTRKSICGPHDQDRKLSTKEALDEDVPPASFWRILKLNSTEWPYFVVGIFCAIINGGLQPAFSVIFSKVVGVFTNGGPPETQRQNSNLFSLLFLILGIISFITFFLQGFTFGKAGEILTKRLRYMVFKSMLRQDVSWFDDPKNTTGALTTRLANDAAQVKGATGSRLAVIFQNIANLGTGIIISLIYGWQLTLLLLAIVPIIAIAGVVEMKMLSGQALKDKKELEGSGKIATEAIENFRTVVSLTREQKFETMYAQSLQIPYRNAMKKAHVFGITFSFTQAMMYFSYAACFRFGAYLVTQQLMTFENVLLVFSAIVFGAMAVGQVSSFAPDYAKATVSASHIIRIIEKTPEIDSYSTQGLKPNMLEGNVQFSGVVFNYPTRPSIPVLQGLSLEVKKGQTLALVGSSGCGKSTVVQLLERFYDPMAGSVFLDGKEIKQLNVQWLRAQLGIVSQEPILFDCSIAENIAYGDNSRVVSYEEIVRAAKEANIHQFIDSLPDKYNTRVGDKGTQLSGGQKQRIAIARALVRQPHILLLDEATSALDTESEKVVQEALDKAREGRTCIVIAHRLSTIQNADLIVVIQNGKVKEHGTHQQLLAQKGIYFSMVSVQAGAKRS

Row | SMILES | in vivo P-gp efflux (Pmdr1/PFVB)
21 | CNCC[C@@H](Oc1ccccc1C)c1ccccc1 [atomoxetine] | 1.17

Test system: not listed separately
Assay: Brain to plasma ratio (AUC 0-6 h) in female FVB mice
Type: in vivo
Details: 100 mpk dose

Row | SMILES | Brain AUC (0-6 h) [µM·h]
22 | CC(=O)NC(Cc1cc(F)cc(F)c1)C(O)CNC1(CCCC(C)(C)C)CC1 (stereo not drawn) [Example 3.5, N-(1-(3,5-difluorophenyl)-4-(1-(4,4-dimethylpentyl)cyclopropylamino)-3-hydroxybutan-2-yl)acetamide] | 28

Same assay, conditions: mouse, brain and plasma, 100 mg/kg, 100 mpk dose, AUC (0-6 h)

Row | SMILES | Kp
23 | CC(=O)NC(Cc1cc(F)cc(F)c1)C(O)CNC1(CCCC(C)(C)C)CC1 (stereo not drawn) [Example 3.5, N-(1-(3,5-difluorophenyl)-4-(1-(4,4-dimethylpentyl)cyclopropylamino)-3-hydroxybutan-2-yl)acetamide] | 2.1

Same assay, conditions: mouse, plasma, 100 mg/kg, 100 mpk dose

Row | SMILES | AUC(0-t) [µM·h]
24 | CC(=O)NC(Cc1cc(F)cc(F)c1)C(O)CNC1(CCCC(C)(C)C)CC1 (stereo not drawn) [Example 3.5, N-(1-(3,5-difluorophenyl)-4-(1-(4,4-dimethylpentyl)cyclopropylamino)-3-hydroxybutan-2-yl)acetamide] | 13
